Experimental data reported in patent US20260042762A1 (Kymera Therapeutics, Inc., priority 2018, published 2026).

Target: T1, MerTK (Homo sapiens, UniProt Q12866)
T1 construct: endogenous in cells; host or cells: Jurkat cells
T1 sequence (Q12866 21-999): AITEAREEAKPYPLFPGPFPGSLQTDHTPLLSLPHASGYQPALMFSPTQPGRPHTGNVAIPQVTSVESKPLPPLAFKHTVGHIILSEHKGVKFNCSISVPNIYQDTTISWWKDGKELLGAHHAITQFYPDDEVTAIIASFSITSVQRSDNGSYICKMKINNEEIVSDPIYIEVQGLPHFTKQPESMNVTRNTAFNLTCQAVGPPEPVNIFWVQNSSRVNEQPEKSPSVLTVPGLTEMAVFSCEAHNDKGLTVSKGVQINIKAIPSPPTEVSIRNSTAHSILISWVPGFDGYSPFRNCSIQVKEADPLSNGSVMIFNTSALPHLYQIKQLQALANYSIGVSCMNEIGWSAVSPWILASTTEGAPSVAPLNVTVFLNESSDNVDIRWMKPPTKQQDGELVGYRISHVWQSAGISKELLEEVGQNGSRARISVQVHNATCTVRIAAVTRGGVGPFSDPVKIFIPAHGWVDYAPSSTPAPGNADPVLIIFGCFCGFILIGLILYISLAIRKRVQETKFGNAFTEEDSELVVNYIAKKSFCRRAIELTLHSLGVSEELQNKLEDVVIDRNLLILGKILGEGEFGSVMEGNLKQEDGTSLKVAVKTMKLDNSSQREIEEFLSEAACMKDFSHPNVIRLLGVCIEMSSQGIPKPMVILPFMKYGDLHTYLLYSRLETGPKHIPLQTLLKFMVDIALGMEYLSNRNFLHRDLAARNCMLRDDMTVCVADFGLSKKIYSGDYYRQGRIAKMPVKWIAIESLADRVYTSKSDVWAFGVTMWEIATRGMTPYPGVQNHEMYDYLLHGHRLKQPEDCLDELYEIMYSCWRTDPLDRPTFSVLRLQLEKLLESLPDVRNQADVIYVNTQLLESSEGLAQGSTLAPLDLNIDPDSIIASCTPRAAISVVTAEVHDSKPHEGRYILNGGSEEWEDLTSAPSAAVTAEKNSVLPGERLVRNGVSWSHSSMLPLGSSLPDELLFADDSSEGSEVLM
Assay: MerTk degradation in Jurkat cells (Western blot)
Assay type: cell-based
Conditions: Jurkat, 4 h, 0.001-1 μM, 4 hour-incubation at 37° C., read-out: Jurkat Max % MerTK Degradation
Procedure, shortened: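 Jurkat cells treated 4 h at 37 °C with compound at 0.001-1 μM final. RIPA lysates quantified by BCA, then MerTK probed by Western blot against actin loading control with IR-dye secondaries and Odyssey imaging.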

Row | Compound | Dmax [%]
1 | CN1C(=O)CC[C@H](n2c(=O)n(C)c3cc(CCCOCCOCCN4CCN(Cc5ccc(-c6cn([C@H]7CC[C@H](O)CC7)c7nc(NCCC(F)(F)F)ncc67)cc5)CC4)ccc32)C1=O [I-105, 1-methyl-3-(3-methyl-2-oxo-5-[3-[2-(2-[4-[(4-[7-[trans-4-hydroxycyclohexyl]-2-[(3,3,3-trifluoropropyl)amino]-7H-pyrrolo[2,3-d]pyrimidin-5-yl]phenyl)methyl]piperazin-1-yl]ethoxy)ethoxy]propyl]-2,3-dihydro-1H-1,3-benzodiazol-1-yl)piperidine-2,6-dione] | 20 to 50
2 | Cn1c(=O)n(C2CCC(=O)NC2=O)c2ccc(CCCCN3CCCC(N4CCN(Cc5ccc(-c6cn([C@H]7CC[C@H](O)CC7)c7nc(NCCC(F)(F)F)ncc67)cc5)CC4)C3)cc21 (stereo partly drawn) [I-121, 3-[3-methyl-2-oxo-5-[4-(3-[4-[(4-[7-[trans-4-hydroxycyclohexyl]-2-[(3,3,3-trifluoropropyl)amino]-7H-pyrrolo[2,3-d]pyrimidin-5-yl]phenyl)methyl]piperazin-1-yl]piperidin-1-yl)butyl]-2,3-dihydro-1H-1,3-benzodiazol-1-yl]piperidine-2,6-dione] | > 50
3 | CCC[C@H](C)Nc1ncc2c(n1)n([C@H]1CC[C@H](O)CC1)cc2[C@H]1CC[C@H](CN2CCN(CCCO[C@H]3CCN(Cc4ccc5c(c4)n(C)c(=O)n5C4CCC(=O)NC4=O)C3)CC2)CC1 (stereo partly drawn) [I-211, 3-(3-methyl-2-oxo-5-[[(3S)-3-[3-(4-[[trans-4-[2-[(2S)-pentan-2-ylamino]-7-[trans-4-hydroxycyclohexyl]pyrrolo[2,3-d]pyrimidin-5-yl]cyclohexyl]methyl]piperazin-1-yl)propoxy]pyrrolidin-1-yl]methyl]-1,3-benzodiazol-1-yl)piperidine-2,6-dione] | > 50
4 | Cn1c(=O)n(C2CCC(=O)NC2=O)c2ccc(CCN3CCC(OCCN4CCN(Cc5ccc(-c6cn([C@H]7CC[C@H](O)CC7)c7nc(NCCC(F)(F)F)ncc67)cc5)CC4)C3)cc21 (stereo partly drawn) [I-124, 3-(3-methyl-2-oxo-5-[2-[3-(2-[4-[(4-[7-[trans-4-hydroxycyclohexyl]-2-[(3,3,3-trifluoropropyl)amino]-7H-pyrrolo[2,3-d]pyrimidin-5-yl]phenyl)methyl]piperazin-1-yl]ethoxy)pyrrolidin-1-yl]ethyl]-2,3-dihydro-1H-1,3-benzodiazol-1-y1)piperidine-2,6-dione; tris(formic acid)] | > 50
5 | COC[C@H](C)Nc1ncc2c(-c3ccc(CN4CCN(CCOCCOCCOCCOCCNc5cccc6c5n(C)c(=O)n6C5CCC(=O)NC5=O)CC4)cc3)cn([C@H]3CC[C@H](O)CC3)c2n1 (stereo partly drawn) [I-4, Trans-3-[4-[15-(4-[[4-(2-[[(2S)-1-methoxypropan-2-yl]amino]-7-[4-hydroxycyclohexyl]-7H-pyrrolo[2,3-d]pyrimidin-5-yl)phenyl]methyl]piperazin-1-yl)-4,7,10,13-tetraoxa-1-azapentadecan-1-yl]-3-methyl-2-oxo-2,3-dihydro-1H-1,3-benzodiazol-1-yl]piperidine-2,6-dione bis(formic acid)] | > 50
6 | Cc1ncsc1-c1ccc(CNC(=O)[C@@H]2C[C@@H](O)CN2C(=O)[C@@H](NC(=O)C2(F)CC2)C(C)(C)C)c(OCCCCCCN2CCN(Cc3ccc(-c4cn([C@H]5CC[C@H](O)CC5)c5nc(NCCC(F)(F)F)ncc45)cc3)CC2)c1 [I-212, (2S,4R)-1-[(2S)-2-[(1-fluorocyclopropyl)formamido]-3,3-dimethylbutanoyl]-4-hydroxy-N-[[4-(4-methyl-1,3-thiazol-5-yl)-2-[(6-[4-[(4-[7-[trans-4-hydroxycyclohexyl]-2-[(3,3,3-trifluoropropyl)amino]pyrrolo[2,3-d]pyrimidin-5-yl]phenyl)methyl]piperazin-1-yl]hexyl)oxy]phenyl]methyl]pyrrolidine-2-carboxamide] | > 50
